# Patent US9113629B2, “4-amino-6-(4-substituted-phenyl)-picolinates and 6-amino-2-(4-substituted-phenyl)-pyrimidine-4-carboxylates and their use as herbicides” (DOW AGROSCIENCES LLC, priority 2013, dated 2015)
# Read-outs that look alike come from different tables or passages of the source.
# What was measured:
# Type in all cases: in vivo
# [1] = test system: AVEFA: wild oats (Avena fatua); assay: Post-emergent Test I herbicidal activity; details: post-emergence, 336 h, 4 kg ai/ha, read-out: Visual Growth Reduction (%) 14 Days After Application, AVEFA
# Protocol: (§1) Post-emergent Test I Seeds test species were obtained from commercial suppliers and planted into a 13 cm diameter-round pot containing soil-less media mix (metro-mix 360®, Sun Gro Horticulture). Postemergence treatments were planted 8-12 days prior to application and cultured in a greenhouse equipped with supplemental light sources to provide a 16 h photoperiod at 24-29° C. All pots were surface irrigated.
# (§2) A weighted amount, determined by the highest rate to be tested, of each compound was dissolved in 1.3 mL acetone-DMSO (97:3, v/v) and diluted with 4.1 mL water-isopropanol-crop oil concentrate (78:20:2, v/v/v) containing 0.02% Triton X-155 to obtain concentrated stock solutions. Additional application rates were obtained by serial dilution of the high rate solution into a solution containing appropriate volume of 97:3 v/v mixture of acetone and DMSO and appropriate volume of an aqueous mixture of water, isopropyl alcohol, crop oil concentrate (78:20:2, v/v/v) containing 0.02% Triton X-155.
# (§3) Formulated compounds were applied using a DeVilbiss® compressed air sprayer at 2-4 psi. Following treatment, pots were returned to the greenhouse for the duration of the experiment. All pots were sub-irrigated as need to provide optimum growing conditions. All pots were fertilized one time per week by subirrigating with Peters Peat-Lite Special® fertilizer (20-10-20).
# (§4) […] All evaluations were made visually on a scale of 0 to 100 where 0 represents no activity and 100 represents complete plant death. Visual assessments of plant injury were made based on growth reduction, discoloration, leaf deformity and necrosis.
# [2] = test system: ECHCG: barnyardgrass (Echinochloa crus-galli); assay: Post-emergent Test I herbicidal activity; details: post-emergence, 336 h, 4 kg ai/ha, read-out: Visual Growth Reduction (%) 14 Days After Application, ECHCG
# Protocol: as §1, §2, §3, §4
# [3] = test system: HELAN: sunflower (Helianthus annuus); assay: Post-emergent Test I herbicidal activity; details: post-emergence, 336 h, 4 kg ai/ha, read-out: Visual Growth Reduction (%) 14 Days After Application, HELAN
# Protocol: as §1, §2, §3, §4
# [4] = test system: IPOHE: ivyleaf morningglory (Ipomoea hederecea); assay: Post-emergent Test I herbicidal activity; details: post-emergence, 336 h, 4 kg ai/ha, read-out: Visual Growth Reduction (%) 14 Days After Application, IPOHE
# Protocol: as §1, §2, §3, §4
# [5] = test system: SETFA: giant foxtail (Setaria faberi); assay: Post-emergent Test I herbicidal activity; details: post-emergence, 336 h, 4 kg ai/ha, read-out: Visual Growth Reduction (%) 14 Days After Application, SETFA
# Protocol: as §1, §2, §3, §4
# [6] = test system: test plant species in Direct Seeded Rice; assay: Postemergence herbicidal activity in direct seeded rice (Table 13); details: for GR50 BRAPP / GR80 BRAPP / GR50 CYPSS / GR80 CYPSS / GR50 ECHSS / GR80 ECHSS / GR50 LEFSS / GR80 LEFSS / GR20 ORYSS / GR50 SCPJU / GR80 SCPJU / GR50 SEBEX / GR80 SEBEX: probit analysis; for GR20 ORYSS: ORYSS: Oryza sativa (crop); for pest or weed control at 35 g/ha / pest or weed control at 70 g/ha: post-emergence, 504 h; for pest or weed control at 35 g/ha: 35 g ai/ha; for pest or weed control at 70 g/ha: 70 g ai/ha
# Text: Seeds or nutlets of the desired test plant species were planted in a soil matrix prepared by mixing a loam soil (43 percent silt, 19 percent clay, and 38 percent sand, with a pH of about 8.1 and an organic matter content of about 1.5 percent) and river sand in an 80 to 20 ratio. The soil matrix was contained in plastic pots with a surface area of 139.7 cm^2. When required to ensure good germination and healthy plants, a fungicide treatment and/or other chemical or physical treatment was applied. The plants were grown for 10-17 d in a greenhouse with an approximate 14-h photoperiod which was maintained at about 29° C. during the day and 26° C. during the night. Nutrients and water were added on a regular basis and supplemental lighting was provided with overhead metal halide 1000-Watt lamps as necessary. The plants were employed for testing when they reached the second or third true leaf stage. A weighed amount, determined by the highest rate to be tested, of each test compound was placed in 25 mL glass vials and dissolved in a volume of 97:3 v/v acetone-DMSO to obtain 12× stock solutions. […] The concentrated stock solutions were added to the spray solutions so that the final acetone and DMSO concentrations were 16.2% and 0.5%, respectively. Spray solutions were diluted to the appropriate final concentrations with the addition of 10 mL of an aqueous mixture of 1.5% (v/v) Agri-dex crop oil concentrate. […] Compound requirements are based upon a 12 mL application volume at a rate of 187 L/ha. Formulated compounds were applied to the plant material with an overhead Mandel track sprayer equipped with […] nozzles calibrated to deliver 187 L/ha over an application area of 0.503 square meters (m^2) at a spray height of 18 inches (43 cm) above average plant canopy height. Control plants were sprayed in the same manner with the solvent blank. The treated plants and control plants were placed in a greenhouse as described above and watered by sub-irrigation to prevent wash-off of the test compounds. After 20-22 days, the condition of the test plants, compared with that of the untreated plants, was determined visually and scored on a scale of 0 to 100 percent where 0 corresponds to no injury and 100 corresponds to complete kill. By applying the well-accepted probit analysis as described by J. Berkson in Journal of the American Statistical Society, 48, 565 (1953) and by D. Finney in “Probit Analysis” Cambridge University Press (1952), the above data can be used to calculate GR20, GR50, GR80 and GR90 values, which are defined as growth reduction factors that correspond to the effective dose of herbicide required to kill or control 20 percent, 50 percent, 80 percent or 90 percent, respectively, of a target plant.
# [7] = BRAPP: broadleaf signalgrass, Brachiaria platyphylla
# [8] = CYPSS: sedge (Cyperus difformis, esculentus, iria)
# [9] = ECHSS: barnyardgrass (Echinochloa crus-galli), junglerice (Echinochloa colonum)
# [10] = LEFSS: sprangletop (Leptochloa chinensis, Leptochloa dubia)
# [11] = SCPJU: Japanese bulrush, Scirpus juncoides
# [12] = SEBEX: hemp sesbania, Sesbania exaltata
# [13] = BRAPP: broadleaf signalgrass, Brachiaria platyphylla, read-out: Visual Growth Reduction (%) 21 Days After Application BRAPP
# [14] = CYPSS: sedge (Cyperus difformis, esculentus, iria), read-out: Visual Growth Reduction (%) 21 Days After Application CYPSS
# [15] = ECHSS: barnyardgrass (Echinochloa crus-galli), junglerice (Echinochloa colonum), read-out: Visual Growth Reduction (%) 21 Days After Application ECHSS
# [16] = LEFSS: sprangletop (Leptochloa chinensis, Leptochloa dubia), read-out: Visual Growth Reduction (%) 21 Days After Application LEFSS
# [17] = ORYSS: Oryza sativa, read-out: Visual Growth Reduction (%) 21 Days After Application ORYSS
# [18] = SCPJU: Japanese bulrush, Scirpus juncoides, read-out: Visual Growth Reduction (%) 21 Days After Application SCPJU
# [19] = SEBEX: hemp sesbania, Sesbania exaltata, read-out: Visual Growth Reduction (%) 21 Days After Application SEBEX
SMILES,"GR50 BRAPP [6, 7] [g ai/ha]","GR80 BRAPP [6, 7] [g ai/ha]","GR50 CYPSS [6, 8] [g ai/ha]","GR80 CYPSS [6, 8] [g ai/ha]","GR50 ECHSS [6, 9] [g ai/ha]","GR80 ECHSS [6, 9] [g ai/ha]","GR50 LEFSS [6, 10] [g ai/ha]","GR80 LEFSS [6, 10] [g ai/ha]",GR20 ORYSS [6] [g ai/ha],"GR50 SCPJU [6, 11] [g ai/ha]","GR80 SCPJU [6, 11] [g ai/ha]","GR50 SEBEX [6, 12] [g ai/ha]","GR80 SEBEX [6, 12] [g ai/ha]","pest or weed control at 35 g/ha [6, 13] [%]","pest or weed control at 70 g/ha [6, 13] [%]","pest or weed control at 35 g/ha [6, 14] [%]","pest or weed control at 70 g/ha [6, 14] [%]","pest or weed control at 35 g/ha [6, 15] [%]","pest or weed control at 70 g/ha [6, 15] [%]","pest or weed control at 35 g/ha [6, 16] [%]",other results
Nc1c(F)c(-c2ccc(Br)cc2)nc(C(=O)O)c1Cl [Compound 20],,,,,,,,,,,,,,,,,,,,,pest or weed control at 4000 g/ha [1]: 75 to 84%; pest or weed control at 4000 g/ha [2]: 95 to 100%; pest or weed control at 4000 g/ha [3]: 95 to 100%; pest or weed control at 4000 g/ha [4]: 85 to 94%; pest or weed control at 4000 g/ha [5]: 95 to 100%
Nc1c(Cl)c(C(=O)O)nc(-c2ccc(C(F)(F)F)c(F)c2)c1Cl [Compound 146],8,29,1,1,17,32,44,87,18,1,1,3,4,60 to 74,95 to 100,95 to 100,95 to 100,85 to 94,85 to 94,0 to 29,"pest or weed control at 70 g/ha [6, 16]: 75 to 84%; pest or weed control at 35 g/ha [6, 17]: 30 to 44%; pest or weed control at 70 g/ha [6, 17]: 60 to 74%; pest or weed control at 35 g/ha [6, 18]: 95 to 100%; pest or weed control at 70 g/ha [6, 18]: 95 to 100%; pest or weed control at 35 g/ha [6, 19]: 95 to 100%; pest or weed control at 70 g/ha [6, 19]: 95 to 100%"
COC(=O)c1nc(-c2ccc(I)cc2F)cc(N)c1Cl [Compound 159],3,8,2,5,2,4,12,19,12,1,1,1,1,95 to 100,95 to 100,95 to 100,95 to 100,95 to 100,95 to 100,95 to 100,"pest or weed control at 70 g/ha [6, 16]: 95 to 100%; pest or weed control at 35 g/ha [6, 17]: 45 to 59%; pest or weed control at 70 g/ha [6, 17]: 60 to 74%; pest or weed control at 35 g/ha [6, 18]: 95 to 100%; pest or weed control at 70 g/ha [6, 18]: 95 to 100%; pest or weed control at 35 g/ha [6, 19]: 95 to 100%; pest or weed control at 70 g/ha [6, 19]: 95 to 100%"
Nc1c(Cl)c(C(=O)O)nc(-c2ccc(I)cc2)c1Cl [Compound 173],8,26,2,4,12,33,24,47,16,1,1,1,1,75 to 84,95 to 100,95 to 100,95 to 100,75 to 84,95 to 100,45 to 59,"pest or weed control at 70 g/ha [6, 16]: 95 to 100%; pest or weed control at 35 g/ha [6, 17]: 45 to 59%; pest or weed control at 70 g/ha [6, 17]: 60 to 74%; pest or weed control at 35 g/ha [6, 18]: 95 to 100%; pest or weed control at 70 g/ha [6, 18]: 95 to 100%; pest or weed control at 35 g/ha [6, 19]: 95 to 100%; pest or weed control at 70 g/ha [6, 19]: 95 to 100%"
